According to US10000775B2, “Biosynthesis of 1-undecene and related terminal olefins” (The Regents of the University of California, priority 2013, dated 2018):

Tests used:
Type in all cases: biochemical, Pseudomonas fluorescens Pf-5
PFL_4321 [1] = assay: In vitro enzymatic assays of PFL_4321 with fatty acid substrates or analogs; conditions: purified PFL_4321, Fe2+, ascorbic acid
Protocol: A typical condition is as follows: 1 mL of reaction mixture contains 50 mM MES buffer (pH 6.2), 300 mM NaCl, 100 μM (NH4)2Fe(SO4)2, 1 mM ascorbic acid, 100 μM fatty acid substrate or analogs, and 10 μM enzyme. The reaction was performed in a sealed headspace vial at 30° C., initiated by adding lauric acid and quenched by injecting equal volume of 5 M NaOH. 1-Undecene production was analyzed and quantified by using the SPME-GCMS method. To determine the kinetic parameters of PFL_4321 on lauric acid, initial velocities at 1, 10, 20, 50, 100, and 150 μM of lauric acid were measured (25 mM lauric acid solution was prepared by adding 0.5% tergitol and heating at 65° C. for 10 min). The reactions were quenched at 2, 4, 6, 8, and 10 seconds, and the acquired turnover rates were fit to the Michaelis-Menten equation using GraphPad Prism to obtain kcat and Km. The kcat and Km of myristic acid and capric acid were determined similarly.
To acquire the kinetic parameters of PFL_4321 on 11-aminoundecanoic acid and 12-aminododecanoic acid, initial velocities at 25, 50, 100, 150, 200, 250, 500, and 700 μM were measured. 50 μl of aliquots of the reaction were quenched at 1, 1.5, 2, 2.5, 3, 3.5, 4, 4.5, 5, 5.5, and 6 minutes by adding 100 μl of acetonitrile. Denatured enzymes were removed by centrifugation at 15,000 g for 20 min. LC-HRMS analysis was carried out on an Agilent Technologies 6520 Accurate-Mass Q-TOF LC-MS instrument equipped with an Agilent Eclipse Plus C18 column (3.5 μm, 4.6×100 mm). 10 μL of the solution was injected into LC-HRMS and a linear gradient of 55 to 95% CH3CN (vol/vol) over 15 min in H2O with 0.1% (vol/vol) formic acid at a flow rate of 0.5 mL/min was used for analysis. The exact masses of aminoundec-1-ene and aminodec-1-ene were extracted, and the peaks were integrated and compared with the standard compounds.

PFL_4321 [2] = assay: Metal ion requirement of PFL_4321 in vitro (1-undecene production from lauric acid)
Protocol: Additional in vitro assays were performed with PFL_4321 using lauric acid, its esters, or thioesters as potential substrates. […] PFL_4321 was incubated with lauric acid in the presence of various metal ions, including Fe^2+, Fe^3+, Mg^2+, Ca^2+, Mn^2+, Co^2+, Ni^2+, Cu^2+, and Zn^2+.

PFL_4321 [3] = assay: Test of H2O2 as a possible substrate
Protocol: To examine whether the H2O2/Fe^3+ or the H2O2/Fe^2+ system provides for the PFL_4321 activity, anaerobic enzymatic reactions in the glove box were performed. The deoxygenated reaction mixture contained 50 mM MES buffer (pH 6.2), 100 mM NaCl, 100 μM PFL_4321, 100 μM either FeCl3 or (NH4)2Fe(SO4)2, 1 mM LA, and various amount of H2O2 (100, 200, 500, 1000, 5000 μM), and 1-undecene production was analyzed. The aerobic reaction was carried out under similar conditions except that the O2 was provided by mixing with the equal volume of O2-saturated buffer solution (50 mM MES, pH 6.2, 100 mM NaCl).

PFL_4321 [4] = assay: Reductive co-substrate screening, with chlorite dismutase coupled assay; conditions: coupled with chlorite dismutase reaction to generate O2 in situ
Protocol: FIG. 28 illustrates a comparison of 1-undecene production by using various reductive cofactors/cosubstrates in the presence of excessive O2 provided by the coupled […] dismutase reaction. The reaction mixture contains 100 μM MES (pH 6.1), 300 mM NaCl, 1 mM lauric acid (dissolved in 0.5% tergitol), 100 μM PFL_4321, 100 μM (NH4)2Fe(SO4)2, 2 μM chlorite dismutase, 4 mM sodium chlorite, and 2 mM reductive cofactor/co-substrates. When needed, 40 μM FAD, FMN, ferredoxin, PQQ, or PMS, and 20 μM flavin reductase (FL-R) or ferredoxin reductase (FR) were added. 1-undecene production was analyzed after reacting for 100 min. Error bars represent standard deviations from at least three independently performed experiments.
To survey the possible reductive co-substrates, the oxygenated buffer solution (50 mM MES, pH 6.2, 100 mM NaCl) was mixed with an equal volume of an O2-free solution containing 50 mM MES buffer (pH 6.2), 100 mM NaCl, 200 μM PFL_4321, 200 μM (NH4)2Fe(SO4)2, 2 mM LA, and 4 mM of the reductive co-substrate, so that the final mixture contained 50 mM MES buffer (pH 6.2), 100 mM NaCl, 100 μM PFL_4321, 100 μM (NH4)2Fe(SO4)2, 1 mM LA, and 2 mM of the reductive co-substrate. The reaction was carried out in a sealed GC vial due to the semi-volatility of 1-undecene. […]

PFL_4321 [5] = assay: Survey of reductive cofactors/cosubstrates under iron-limited conditions; conditions: iron-limiting conditions; 1 mM reductive cofactor
Protocol: FIG. 7 illustrates a comparison of 1-undecene production by using various reductive cofactors/cosubstrates under iron-limited conditions. 2.5 mL of reaction mixture contains 100 μM MES (pH 6.1), 300 mM NaCl, 50 μM lauric acid, 5 μM PFL_4321, 0.1 μM (NH4)2Fe(SO4)2, and 1 mM reductive cofactor. When needed, 40 μM FAD, FMN, ferredoxin, or phenazine, and 20 μM flavin reductase (FL-R) or ferredoxin reductase (FR) were added.
A survey was conducted to identify the possible reductive cofactor/cosubstrates according to the well-studied oxygen-activating iron-dependent oxygenases, including but not limited to α-ketoglutarate, ascorbic acid, glutathione, cysteine, nicotinamides, flavins, ferredoxin (F. H. Vaillancourt et al., Nature 436, 1191, 2005; W. C. Chang et al., Nature 496, 114, 2013; L. M. Mirica et al., J Am Chem Soc 130, 8122, 2008; P. C. Bruijnincx et al., Chem Soc Rev 37, 2716, 2008). […] Accordingly, ascorbic acid was included in all of the following in vitro assays and the kinetic parameters of PFL_4321 toward lauric acid (C12) were determined (FIG. 8).

Compound	conversion of the substrate by PFL_4321 (to the corresponding minus-1-carbon 1-alkene or other product) (PFL_4321 [1])	other results
CCCCCCCCCC=CC(=O)O [2,3-dodecenoic acid]	no activity	–
CCCCCCCCC(C)CCC(=O)O (centres unmarked) [4-methyldodecanoic acid]	converted to their corresponding terminal olefins	–
C#CCCCCCCCCC(=O)O [10-undecynoic acid]	catalyzed the conversion	–
NCCCCCCCCCCC(=O)O [11-aminoundecanoic acid]	catalyzed the conversion	–
O=C(O)CCCCCCCCCCBr [11-bromoundecanoic acid]	catalyzed the conversion	–
CC(C)CCCCCCCCCC(=O)O [11-methyldodecanoic acid]	converted to their corresponding terminal olefins	–
NCCCCCCCCCCCC(=O)O [12-aminododecanoic acid]	catalyzed the conversion	–
O=C(O)CCCCCCCCCCCBr [12-bromododecanoic acid]	catalyzed the conversion	–
O=C(O)CN(CCN(CC(=O)O)CC(=O)O)CC(=O)O [EDTA, ethylenediaminetetraacetic acid]	–	effect on 1-undecene formation by PFL_4321, lauric acid and E. coli crude extract (PFL_4321 [2]; addition of chelating agent): quenched
[Fe+2] [Fe^2+]	–	1-undecene production by PFL_4321 with lauric acid in the presence of the metal ion (PFL_4321 [2]; PFL_4321 incubated with lauric acid and metal ion): elicited the 1-undecene production
OO [H2O2]	–	1-undecene formation in the presence of H2O2 (PFL_4321 [3]; anaerobic reactions with either PFL_4321-Fe(III) or PFL_4321-Fe(II)): no 1-undecene was formed; 1-undecene formation in the presence of H2O2 (PFL_4321 [3]; both H2O2 and O2, PFL_4321-Fe(III)): no 1-undecene was formed; effect of H2O2 on 1-undecene formation (PFL_4321 [3]; reaction containing O2 and PFL_4321-Fe(II)): did not promote
[2H]C([2H])(CCCCCCCCCC)C(=O)O [[α,α-D2]lauric acid]	led to the production of 1-undecene retaining both deuterium atoms	–
O=C1O[C@H]([C@@H](O)CO)C(O)=C1O [ascorbic acid]	–	multiple turnovers for PFL_4321 in vitro (PFL_4321 [4]): allowed for multiple turnovers; rate of 1-undecene production with multiple turnovers (PFL_4321 [4]): four; effect on the yield of 1-undecene (PFL_4321 [5]): significantly increased
CCCCCCCCCC(=O)O [capric acid]	converted	–
CCCCCCCC(=O)O [caprylic acid]	failed to act	–
N[C@@H](CS)C(=O)O [cysteine]	–	effect on the yield of 1-undecene (PFL_4321 [5]): modest effect
O=S(O)S(=O)O [dithionite]	–	effect on 1-undecene production by PFL_4321 (PFL_4321 [3]; added to reduce O2 to H2O2 in situ): inhibited
CCCCCCCCCCCCCC(=O)O [myristic acid]	converted	–
CCCCCCCCCCCCCCCC(=O)O [palmitic acid]	failed to act	–
CCCCCCCCCCC(O)C(=O)O (stereo not drawn) [α-hydroxydodecanoic acid]	transformed	–
CCCCCCCCCC(O)CC(=O)O (stereo not drawn) [β-hydroxydodecanoic acid]	no activity	–
[D23]lauric acid	led to the production of [D22]1-undecene	–
